The values below come from PMC12027992, “New Amidino-Substituted Benzimidazole Derivatives as Human Dipeptidyl Peptidase III Inhibitors: Synthesis, In Vitro Evaluation, QSAR, and Molecular Docking Studies” (International Journal of Molecular Sciences, 2025).

One experiment deals with HCT116. Also on record: method as in doi:10.5562/cca3531. Particulars: cited from earlier work.
The next experiment concerns H460. The arrangement: method as in doi:10.5562/cca3531. Particulars: cited from earlier work.
A further experiment concerns the target T1, human DPP III (Homo sapiens, UniProt Q9NY33).
T1 construct: C-terminally truncated human DPP III was expressed and purified as described previously; His-tag (TEV-cleavable) (C, cleaved yes); made in house; host or cells: E. coli BL21-CodonPlus (DE3)-RIL
T1 sequence (Q9NY33 1-726 limits assumed): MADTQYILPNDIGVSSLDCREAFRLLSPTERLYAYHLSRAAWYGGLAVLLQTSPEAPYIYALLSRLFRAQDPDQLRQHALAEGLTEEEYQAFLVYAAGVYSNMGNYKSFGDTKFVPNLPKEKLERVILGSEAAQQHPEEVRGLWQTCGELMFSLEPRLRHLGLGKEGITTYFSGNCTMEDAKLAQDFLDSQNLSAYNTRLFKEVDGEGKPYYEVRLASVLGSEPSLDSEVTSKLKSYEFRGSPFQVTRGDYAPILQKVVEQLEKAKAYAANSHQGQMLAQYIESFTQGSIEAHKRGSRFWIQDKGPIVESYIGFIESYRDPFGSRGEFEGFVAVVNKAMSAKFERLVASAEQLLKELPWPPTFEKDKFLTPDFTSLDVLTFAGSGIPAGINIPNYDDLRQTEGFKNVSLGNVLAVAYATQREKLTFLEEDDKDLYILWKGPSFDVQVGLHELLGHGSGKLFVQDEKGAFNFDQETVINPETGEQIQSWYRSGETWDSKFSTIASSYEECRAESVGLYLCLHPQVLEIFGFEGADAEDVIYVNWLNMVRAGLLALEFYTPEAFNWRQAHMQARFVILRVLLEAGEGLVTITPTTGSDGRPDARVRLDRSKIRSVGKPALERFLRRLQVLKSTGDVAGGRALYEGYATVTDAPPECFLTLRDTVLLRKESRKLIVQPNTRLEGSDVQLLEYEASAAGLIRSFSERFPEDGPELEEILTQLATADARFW
Description: hDPP III enzyme activity assay (% inhibition and IC50), substrate Arg-Arg-2-naphthylamide. The experiment is classed as biochemical. Particulars: for IC50: at least seven concentrations, nonlinear regression, three replicates; for log % inh. exp.: logarithm of % inhibition at 30 μmol L^–1; for inhibition at 30 µM: pH 7.4, 30 μmol L^–1 compound, recombinant hDPP III 0.75 nM, Arg-Arg-2-naphthylamide 40 μM, pH 7.4, 37 °C, average of three determinations ± SD. As to the method:
C-terminally truncated human DPP III was expressed and purified as described previously. In brief, C-terminal HIS-tagged recombinant human DPP III was expressed in E. coli BL21-CodonPlus (DE3)-RIL cells, Agilent (Santa Clara, CA, USA). Overexpression was induced by 0.25 mM isopropyl-b-D-1-thiogalactopyranoside (IPTG, Fermentas), and the cells were grown for 20 h at 18 °C and 130 rpm. Obtained bacterial cells were lysed by a combination of lysozyme lysis and sonication, then treated with DNase I and centrifuged at 4000× g for 15 min to precipitate the cell debris. The lysate was purified by affinity chromatography on a Ni-NTA column (5 mL prepacked His-trap FF) GE Healthcare (Chicago, IL, USA) using a buffer system with 50 mM Tris- HCl, pH = 8.0, 300 mM NaCl, and increasing imidazole concentrations: 10 mM for lysis, 20 mM for wash, and 300 mM for elution buffer. All hDPP III active fractions were pooled and incubated with TEV protease to remove the HIS-tag. Human DPP III was recovered using flow-through affinity chromatography (TEV protease is His-tagged), and additionally purified on a 16/60 Superdex-200 gel-filtration column GE Healthcare (Chicago, IL, USA). Fractions with hDPP III were desalted on PD-10 columns GE Healthcare (Chicago, IL, USA). Purified protein in 20 mM Tris-HCl buffer pH = 7.4 was stored at -80 °C until use. Recombinant hDPP III (0.75 nM) was preincubated with benzimidazole derivatives (30 μM) first for 10 min at 25 °C and then for 5 min at 37 °C in 50 mM Tris-HCl buffer, pH 7.4. The enzymatic reaction was started with Arg-[…]-naphthylamide (40 μM) as a substrate, and after the 15 min incubation at 37 °C in a water bath, the reaction was stopped, and the absorbance was measured using the spectrophotometric method described by Abramić et al.. All benzimidazole derivatives were prepared daily in dimethyl sulfoxide, and the resulting stock solutions (4 mM) were transparent, without turbidity or solid residue. […] Before the enzyme assay, stock solutions were diluted with 50 mM Tris-HCl buffer, pH 7.4. […] The percentage of enzyme inhibition under at least seven different concentration gradients was imported into GraphPad Prism 10.4.1 software to calculate IC50 values of the compounds using nonlinear regression analysis from the mean inhibitory value of three replicates. The relative occupancy of inhibition for compounds with the same substituent at position 6 of the benzimidazole core was defined as the sum of their % inh., expressed relative to their maximum achievable inhibition, which was set at 100.

For a further experiment, the system named is MCF-7. Also on record: method as in doi:10.5562/cca3531. Particulars: cited from earlier work.
For another experiment, the target named is hDPP III. The arrangement: method as in PMID 18163885. Particulars: read-out: inhibition constant (Ki); cited from earlier work.

Several values for one entry are separate records, joined by “and”; a condition that tells them apart may be missing. Equal entries are not always repeated. Structures can show the parent of a compound that is named as a salt. Residues, ends and D or L forms follow the SMILES beside them.

In the case of `N=C(N)c1ccc2nc(-c3ccc(C(F)(F)F)cc3)[nH]c2c1` [a6], the antiproliferative activity result in the experiment on HCT116 is on record as “displayed antiproliferative activity”. In addition, the antiproliferative activity result with H460 is listed as “displayed antiproliferative activity”. For the same compound, at human DPP III, the IC50 was < 20 µM and 9.83 µM; the “log % inh. exp.” value is on record as 1.99; the inhibition at 30 µM is no less than 90%. Moreover, in the experiment on MCF-7, the antiproliferative activity entry is recorded as “displayed antiproliferative activity”.

With `c1csc(-c2ccc(-c3nc4ccc(C5=NCCN5)cc4[nH]3)s2)c1` [b4], on human DPP III, the 50% inhibitory concentration (IC50) is < 20 µM and 4.98 µM; the “log % inh. exp.” value is 2.00; the inhibition at 30 µM was no less than 90%.

Regarding `c1ccc2c(c1)cc(-c1nc3cc(C4=NCCN4)ccc3[nH]1)c1ccccc12` [b2, 5(6)-(2-imidazolinyl)-2-(phenanthren-9-yl)-1H-benzo[d]imidazole], at human DPP III, the IC50 is < 20 µM and 11.1 µM; the “log % inh. exp.” value was 2.00; the inhibition at 30 µM was no less than 90%.

With `FC(F)(F)c1ccc(-c2nc3ccc(C4=NCCN4)cc3[nH]2)cc1` [b6], the antiproliferative activity result in the experiment on HCT116 is reported as “displayed antiproliferative activity”. Besides, the antiproliferative activity result in the experiment with H460 was “displayed antiproliferative activity”. Also, at human DPP III, the 50% inhibitory concentration (IC50) is < 20 µM and 8.18 µM; the “log % inh. exp.” value is reported as 2.00; the inhibition at 30 µM is no less than 90%. In addition, the antiproliferative activity entry in the experiment on MCF-7 is on record as “displayed antiproliferative activity”.

In the case of `CCN(CC)c1ccc(-c2nc3ccc(C(=N)N)cc3[nH]2)c(O)c1` [a2, 5(6)-amidino-2-[4-(N,N-diethylamino)-2-hydroxyphenyl]benzimidazole hydrochloride], at human DPP III, the IC50 is < 20 µM and 8.44 µM; the “log % inh. exp.” value amounted to 2.00; the inhibition at 30 µM is no less than 90%.

`N[C@@H](Cc1ccc(O)cc1)C(=O)N[C@@H](Cc1ccccc1)C(=O)NO` [Tyr-Phe-NHOH] (HELM PEPTIDE1{Y.F.[ON[*:1]]}$$$$V2.0): the Ki on hDPP III was 0.15 ± 0.04 µM.

Consider `N=C(N)c1ccc2nc(-c3ccc(-c4cccs4)s3)[nH]c2c1` [a4], for which, at human DPP III, the concentration for half-maximal inhibition (IC50) is < 20 µM and 8.34 µM; the “log % inh. exp.” value was determined as 2.00; the inhibition at 30 µM is no less than 90%.

With `Oc1ccc(-c2nc3ccc(C4=NCCN4)cc3[nH]2)c(O)c1O` [b13, 5(6)-(4,5-Dihydro-1H-imidazol-3-ium-2-yl)-2-(2,3,4-trihydroxyphenyl)benzimidazole chloride], at human DPP III, the IC50 was < 20 µM and 1.03 µM; the “log % inh. exp.” value is 2.00; the inhibition at 30 µM is no less than 90%.

For `c1ccc2c(c1)cc(-c1nc3cc(C4=NCCCN4)ccc3[nH]1)c1ccccc12` [c8], at human DPP III, the “log % inh. exp.” value amounted to 1.71 and the inhibition at 30 µM stood at 51.7 ± 0.2%.

A word on the IC50: it is the point on the concentration scale where inhibition reaches its midpoint. As a reminder, the inhibition is the percentage by which the read-out fell short of the control. As usually defined, the Ki is the dissociation constant of the complex between target and ligand, obtained from inhibition or displacement.
